Source: PMC3711124 (Biochemistry, 2008)
No end group written: not given here.

What was measured:
[1] = Circular dichroism of E5TM in DPC micelles; assay type: physicochemical; conditions: CD, 5°C-95°C in 10°C increments, 15 mM DPC, pH 7.5, 114 μM peptide
AUC = molecular target: the molecule itself; test: AUC

Row | Molecule | thermal stability of α-helical structure [1] | stoichiometry N (AUC)
1 | Ac-KKKFLGLVAAMQLLLLLFLLLFFLVYWDHK [E5TM] | Only a small decrease in α-helical structure was observed | –
2 | KKKFLGLVAAMQLLLLLFLLLFFLVYWDHK (also: end-caps on C- and N-termini, not given here) [E5TM peptide (transmembrane domain of the bovine papillomavirus E5 protein, residues F9-H34, with fl] | – | 2
